In patent US9512111B2, “N-sulfonylated tetrahydroquinolines and related bicyclic compounds for inhibition of RORγ activity and the treatment of disease” (Lycera Corporation, priority 2010, dated 2016):

Legend:
RORγ-LBD = biological target: T1, RORγ-LBD (Homo sapiens, UniProt P51449); assay: RORγ-Ligand Binding Domain TR-FRET Assay; type: biochemical; conditions: benzoxazines, Table 9
T1 construct: HIS-tagged RORγ-LBD was recombinantly expressed in SF9 cells; made in house; host or cells: SF9 cells (baculovirus); unpurified lysate
T1 sequence (P51449 269-508 limits assumed): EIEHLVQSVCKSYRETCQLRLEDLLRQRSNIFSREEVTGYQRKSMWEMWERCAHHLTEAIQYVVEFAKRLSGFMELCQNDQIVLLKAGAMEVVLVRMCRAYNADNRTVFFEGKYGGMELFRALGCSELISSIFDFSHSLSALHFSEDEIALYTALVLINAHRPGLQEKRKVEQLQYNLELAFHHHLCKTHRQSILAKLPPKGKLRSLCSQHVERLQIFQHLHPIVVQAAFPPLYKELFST
In short: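 IC50 derived from the 665 nm/615 nm emission ratio after 4 h to overnight incubation. Mixture: Sf9 lysate with His-tagged LBD (~10 nM final, not purified), SRC1-2 LXXLL biotin peptide at 450 nM, 2 nM europium anti-His antibody, 60 nM APC-streptavidin; buffer 25 mM HEPES pH 7.0, 100 mM NaCl, 0.01% Tween, 0.1% BSA.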

RORγt = biological target: T2, RORγt (Homo sapiens, UniProt P51449); assay: RORγ Reporter Assay (GAL4-UAS luciferase reporter in HEK293 cells); type: cell-based; conditions: benzoxazines, Table 9; HEK cells
T2 construct: The resulting GAL4-RORγt-LBD fusion construct was placed under the control of a constitutive cytomegalovirus (CMV) promoter; expressed in transfected cells; host or cells: HEK293
T2 sequence (P51449 269-508 limits assumed): T1 sequence (P51449 269-508 limits assumed)
Procedure: Inhibition of RORγt in cells was determined using a GAL4-UAS reporter system in HEK293 cells employing a luciferase readout. The RORγt DNA binding domain (DBD) was replaced with the heterologous yeast GAL4 DBD using standard recombinant DNA methods. The resulting GAL4-RORγt-LBD fusion construct was placed under the control of a constitutive cytomegalovirus (CMV) promoter by cloning it into the CMV-driven mammalian expression vector pcDNA3.1+− (Promega Corporation, Madison, Wis.).
A transcriptional reporter expression construct was used to monitor GAL4-RORγ activity, which contained five copies of the GAL4 binding site enhancer (UAS) controlling expression of a firefly luciferase reporter. This construct, pGL4.31, is commercially available from Promega Corporation, Madison Wis. Both expression constructs were transfected in bulk into HEK-293 cells using standard lipid-based transfection techniques, which allowed the GAL4 RORγ-LBD fusion protein to drive expression of the luciferase reporter. Control transfections were performed with an empty pCDN3.1+ vector.
The next day, cells were plated into 384 well plates, test compound was added, and the plates were incubated overnight. […] Promega firefly assays kits were used to stabilize the luciferase signal, and the intensity of the luciferase signal was measured using an EnVision Multilabel Plate Reader (Perkin Elmer, Waltham, Mass.).
HEK 293 cells are transfected with GAL4-NR construct (CMV:NR-LBD in pcDNA3.1neo) and the pGL4.31 GAL4-luciferase reporter construct (Promega). For a background control, use empty pcDNA3.1neo and pGL4.31. Transfection protocol is for a single T75 flask performed with Minis Trans-It 293 reagent. A 60 μL aliquot of Trans-IT reagent at room temperature is added drop wise to 1.5 mL of Optimem (Invitrogen). The resulting solution is mixed by inversion and incubated for 5-20 minutes at room temperature. This reagent mixture is added to 10 μg of DNA (5 μg of each expression vector used at a concentration of 1 mg/mL). The solution is mixed by inversion and incubated at room temperature for 20 minutes.
While the Trans-IT reagent and DNA are incubating, harvest HEK-293 cells. Remove media from flasks via aspiration and add enough TrypLE Express (stable Trypsin-like reagent, Invitrogen) to cover the bottom of the flask. The mixture is incubated at room temperature until the cells are visibly loose in the flask (approximately 2-5 minutes). Add an equal volume of complete growth media, and then pipette to achieve a single cell suspension. Spin down 1×10^7 cells and re-suspend the cells in 10 mL of complete growth media (DMEM high glucose/10% dialyzed FBS/pen/strep; Invitrogen). The cells and transfection mixture are added to one T75 flask. The contents of the T75 flax are mixed and incubated overnight at 37° C. and 5% CO2.
After 16-24 hours, cells are harvested and plated for test compound screening. Cells may be harvested as described above. Next, cells are counted and an appropriate number of cells are spun down. Then, cells are aspirated and re-suspended in complete growth media at a concentration of 0.5×10^6 cells/mL to provide a cell suspension. Plate 20 μL of the cell suspension into a white, tissue-culture treated 384 well plate. (10,000 cells/well).
A 10 mM stock solution of test compound in dimethylsulfoxide (DMSO) was diluted to 500× the final test concentration in DMSO, then diluted to 5× the final test concentration with complete growth medium to provide the Test Compound Solution. The concentration of DMSO in the Test Compound Solution was […]. A 5 μL aliquot of Test Compound Solution was added to each test well in the 384 well plate previously plated with the cell suspension. Next, plates are spun briefly and incubated overnight at 37° C. and 5% CO2.
After 16-24 hours, the luciferase assay is performed. Plates and luciferase reagent (e.g. One-Glo® or Dual Glo®; Promega, Madison, Wis.) are brought to room temperature.

O=C(Nc1ccc2c(c1)N(S(=O)(=O)c1ccc(F)cc1)CC(CC(F)(F)F)O2)c1c(F)cccc1C(F)(F)F (stereo not shown) [VI-14]
IC50 (RORγ-LBD): < 15 µM
IC50 (RORγt): < 15 µM

O=C(Nc1ccc2c(c1)N(S(=O)(=O)c1ccc(F)c(F)c1)C[C@@H](CO)O2)c1c(F)cccc1Cl [VI-75]
IC50 (RORγ-LBD): < 15 µM
IC50 (RORγt): < 15 µM

COCC1CN(S(=O)(=O)c2ccc(Cl)cc2)c2cc(NC(=O)c3c(Cl)cccc3C(F)(F)F)ccc2O1 (stereo not shown) [VI-91]
IC50 (RORγ-LBD): < 15 µM
IC50 (RORγt): < 15 µM

CC1(C)CN(S(=O)(=O)c2ccc(F)cc2)c2cc(NC(=O)c3c(F)cccc3Cl)ccc2O1 [Compound 16, 2-Chloro-6-fluoro-N-(4-((4-fluorophenyl)sulfonyl)-2,2-dimethyl-3,4-dihydro-2H-benzo[b][1,4]oxazin-6-yl)benzamide]
IC50 (RORγ-LBD): < 15 µM
IC50 (RORγt): < 15 µM

COCC1CN(S(=O)(=O)c2ccc(F)c(F)c2)c2cc(NC(=O)c3c(Cl)cccc3Cl)ccc2O1 (stereo not shown) [VI-70]
IC50 (RORγ-LBD): < 15 µM
IC50 (RORγt): < 15 µM

Cc1nn(C(F)F)cc1S(=O)(=O)N1C[C@H](C)Oc2ccc(NC(=O)c3c(Cl)cccc3C(F)(F)F)cc21 [VI-11]
IC50 (RORγ-LBD): < 15 µM
IC50 (RORγt): < 15 µM

O=C(Nc1ccc2c(c1)N(S(=O)(=O)c1ccc(Cl)cc1)C[C@H](CO)O2)c1c(Cl)cccc1Cl [VI-85]
IC50 (RORγ-LBD): < 15 µM
IC50 (RORγt): < 15 µM

COCC1CN(S(=O)(=O)c2cccc(C#N)c2)c2cc(NC(=O)c3c(F)cccc3F)ccc2O1 (stereo not shown) [VI-103]
IC50 (RORγ-LBD): < 15 µM
IC50 (RORγt): < 15 µM

CCOCC1CN(S(=O)(=O)c2ccc(Cl)cc2)c2cc(NC(=O)c3c(Cl)cccc3C(F)(F)F)ccc2O1 (stereo not shown) [VI-90]
IC50 (RORγ-LBD): < 15 µM
IC50 (RORγt): < 15 µM

CCN(CC)CC1CN(S(=O)(=O)c2ccc(F)cc2)c2cc(NC(=O)c3c(F)cccc3Cl)ccc2O1 (stereo not shown) [VI-38]
IC50 (RORγ-LBD): < 15 µM
IC50 (RORγt): < 15 µM

CCOCC1CN(S(=O)(=O)c2ccc(F)cc2)c2cc(NC(=O)c3c(F)cccc3F)ccc2O1 (stereo not shown) [VI-112]
IC50 (RORγ-LBD): < 15 µM
IC50 (RORγt): < 15 µM

CCOCC1CN(S(=O)(=O)c2ccc(Cl)cc2)c2cc(NC(=O)c3c(F)cccc3F)ccc2O1 (stereo not shown) [VI-94]
IC50 (RORγ-LBD): < 15 µM
IC50 (RORγt): < 15 µM

COCC1CN(S(=O)(=O)c2ccc(F)cc2)c2cc(NC(=O)c3c(F)cccc3Cl)c(F)cc2O1 (stereo not shown) [Compound 12, 2-Chloro-6-fluoro-N-[7-fluoro-4-(4-fluorobenzenesulfonyl)-2-methoxymethyl-3,4-dihydro-2H-benzo[1,4]oxazin-6-yl]benzamide]
IC50 (RORγ-LBD): < 15 µM
IC50 (RORγt): < 15 µM

CC(C)OCC1CN(S(=O)(=O)c2ccc(F)cc2)c2cc(NC(=O)c3c(Cl)cccc3C(F)(F)F)ccc2O1 (stereo not shown) [VI-123]
IC50 (RORγ-LBD): < 15 µM
IC50 (RORγt): < 15 µM

CCOCC1CN(S(=O)(=O)c2ccc(F)cc2)c2cc(NC(=O)c3c(Cl)cccc3Cl)ccc2O1 (stereo not shown) [VI-108]
IC50 (RORγ-LBD): < 15 µM
IC50 (RORγt): < 15 µM

COCC1CN(S(=O)(=O)c2ccc(F)c(F)c2)c2cc(NC(=O)Cc3ccc(F)cc3)ccc2O1 (stereo not shown) [VI-78]
IC50 (RORγ-LBD): < 15 µM
IC50 (RORγt): < 15 µM

CC(C)OCC1CN(S(=O)(=O)c2ccc(F)cc2)c2cc(NC(=O)c3c(F)cccc3Cl)ccc2O1 (stereo not shown) [VI-121]
IC50 (RORγ-LBD): < 15 µM
IC50 (RORγt): < 15 µM

O=C(Nc1ccc2c(c1)N(S(=O)(=O)c1ccc(Cl)cc1)C[C@H](CO)O2)c1c(F)cccc1Cl [VI-86]
IC50 (RORγ-LBD): < 15 µM
IC50 (RORγt): < 15 µM

Cc1nn(C(F)F)cc1S(=O)(=O)N1C[C@H](C)Oc2ccc(NC(=O)c3c(F)cccc3C(F)(F)F)cc21 [VI-10]
IC50 (RORγ-LBD): < 15 µM
IC50 (RORγt): < 15 µM

COCC1CN(S(=O)(=O)c2ccc(F)cc2)c2cc(NC(=O)c3c(F)cccc3F)ccc2O1 (stereo not shown) [VI-113]
IC50 (RORγ-LBD): < 15 µM
IC50 (RORγt): < 15 µM

O=C(Nc1cc2c(cc1F)O[C@@H](CO)CN2S(=O)(=O)c1ccc(F)cc1)c1c(F)cccc1Cl [VI-47]
IC50 (RORγ-LBD): < 15 µM
IC50 (RORγt): < 15 µM

CC(C)OCC1CN(S(=O)(=O)c2ccc(F)cc2)c2cc(NC(=O)c3c(Cl)cccc3Cl)ccc2O1 (stereo not shown) [VI-109]
IC50 (RORγ-LBD): < 15 µM
IC50 (RORγt): < 15 µM

O=C(Nc1ccc2c(c1)N(S(=O)(=O)c1ccc(F)cc1)C[C@@H](CO)O2)c1c(F)cccc1Cl [VI-116]
IC50 (RORγ-LBD): < 15 µM
IC50 (RORγt): < 15 µM

O=C(Nc1ccc2c(c1)N(S(=O)(=O)c1ccc(F)cc1)CC(CC(F)(F)F)O2)c1c(Cl)cccc1C(F)(F)F (stereo not shown) [VI-15]
IC50 (RORγ-LBD): < 15 µM
IC50 (RORγt): < 15 µM

COCC1CN(S(=O)(=O)c2cccc(C#N)c2)c2cc(NC(=O)c3c(F)cccc3Cl)ccc2O1 (stereo not shown) [VI-101]
IC50 (RORγ-LBD): < 15 µM
IC50 (RORγt): < 15 µM

COc1ccc(S(=O)(=O)N2C[C@H](CO)Oc3ccc(NC(=O)c4c(Cl)cccc4Cl)cc32)cn1 [VI-26]
IC50 (RORγ-LBD): < 15 µM
IC50 (RORγt): < 15 µM

CCOCC1CN(S(=O)(=O)c2ccc(F)cc2)c2cc(NC(=O)c3c(Cl)cccc3C(F)(F)F)ccc2O1 (stereo not shown) [Compound 15, 2-Chloro-N-[2-ethoxymethyl-4-(4-fluoro-benzenesulfonyl)-3,4-dihydro-2H-benzo[1,4]oxazin-6-yl]-6-trifluoromethyl-benzamide]
IC50 (RORγ-LBD): < 15 µM
IC50 (RORγt): < 15 µM

CCOCC1CN(S(=O)(=O)c2ccc(F)c(F)c2)c2cc(NC(=O)c3c(Cl)cccc3C(F)(F)F)ccc2O1 (stereo not shown) [VI-88]
IC50 (RORγ-LBD): < 15 µM
IC50 (RORγt): < 15 µM

COCC1CN(S(=O)(=O)c2ccc(F)c(F)c2)c2cc(NC(=O)c3c(F)cccc3Cl)ccc2O1 (stereo not shown) [VI-80]
IC50 (RORγ-LBD): < 15 µM
IC50 (RORγt): < 15 µM

COCC1CN(S(=O)(=O)c2ccc(F)cc2)c2cc(NC(=O)c3c(F)cccc3Cl)ccc2O1 (stereo not shown) [VI-119]
IC50 (RORγ-LBD): < 15 µM
IC50 (RORγt): < 15 µM

O=C(Nc1ccc2c(c1)N(S(=O)(=O)c1ccc(Cl)cc1)C[C@@H](CO)O2)c1c(F)cccc1C(F)(F)F [VI-51]
IC50 (RORγ-LBD): < 15 µM
IC50 (RORγt): < 15 µM

Cc1cccc(F)c1C(=O)Nc1ccc2c(c1)N(S(=O)(=O)c1cccc(C#N)c1)C[C@H](CO)O2 [VI-45]
IC50 (RORγ-LBD): < 15 µM
IC50 (RORγt): < 15 µM

Cc1nn(C(F)F)cc1S(=O)(=O)N1C[C@H](C)Oc2ccc(NC(=O)c3c(F)cccc3Cl)cc21 [VI-12]
IC50 (RORγ-LBD): < 15 µM
IC50 (RORγt): < 15 µM

Cc1nn(C(F)F)cc1S(=O)(=O)N1C[C@H](CO)Oc2ccc(NC(=O)c3c(Cl)cccc3C(F)(F)F)cc21 [VI-29]
IC50 (RORγ-LBD): < 15 µM
IC50 (RORγt): < 15 µM

O=C(Nc1ccc2c(c1)N(S(=O)(=O)c1ccc(F)cc1)C[C@H](CO)O2)c1c(F)cccc1F [VI-114]
IC50 (RORγ-LBD): < 15 µM
IC50 (RORγt): < 15 µM

O=C(Nc1ccc2c(c1)N(S(=O)(=O)c1ccc(F)cc1)C[C@H](CO)O2)c1c(F)cccc1Cl [VI-120]
IC50 (RORγ-LBD): < 15 µM
IC50 (RORγt): < 15 µM

COCC1CN(S(=O)(=O)c2ccc(F)cc2)c2cc(NC(=O)c3c(Cl)cccc3Cl)ccc2O1 (stereo not shown) [VI-105]
IC50 (RORγ-LBD): < 15 µM
IC50 (RORγt): < 15 µM

COCC1CN(S(=O)(=O)c2ccc(F)cc2)c2cc(NC(=O)c3c(Cl)cccc3C(F)(F)F)ccc2O1 (stereo not shown) [VI-104]
IC50 (RORγ-LBD): < 15 µM
IC50 (RORγt): < 15 µM
